System: rice seedling (variety: Koshihikari)
Assay: Rice hydroponics test tube test, number of new roots after 5 days (Example 5, Comparative Examples 1 and 2)
Format: in vivo
Conditions: for safener effect on inhibition of new root development by pyrazosulfuron-ethyl: 0.01 mg pyrazosulfuron-ethyl in 1 L hydroponics solution; for Condition of new roots in test tube of safener composition: 0.01 mg pyrazosulfuron-ethyl plus the safener (0.1 ml safener (A) or 0.01 mg comparative) in 1 L hydroponics solution
Method: One rice seedling (variety: Koshihikari) in the two-leaf stage was transplanted into the test tube. This was placed in an artificial meteorological instrument set to 16 hours (25° C.) in the light period and 8 hours (20° C.) in the dark period. After a lapse of 5 days, the number of new roots was counted. This test was performed a total of 6 times. An average value was calculated from the measured values for 6 times.
A comparative safener composition (1) was obtained by the same method as that for the safener composition (2), with the exception that 0.1 ml of the safener (A) of Example 5 was replaced with a solution obtained by dissolving 0.01 mg of α-naphthylacetamide in 10 μl of DMSO.
A comparative safener composition (2) was obtained by the same method as that for the safener composition (2), with the exception that 0.1 ml of the safener (A) of Example 5 was replaced with a solution obtained by dissolving 0.01 mg of indole butyric acid in 10 μl of DMSO.

Compound	safener effect on inhibition of new root development by pyrazosulfuron-ethyl	Condition of new roots in test tube of safener composition
NC(=O)Cc1cccc2ccccc12 [α-Naphthylacetamide, α-naphthylacetamide]	no safener effect	3.3 roots
indole butyric acid	no safener effect	5.0 roots
